Earlier results on one compound are cited in patent publication US20040223971A1, “Composition and uses of galectin antagonists” (GlycoGenesys, Inc., priority 2003, published 2004).

Data set [1] concerns BT549 cells. The note with it: BT549 cells without detectable galectin-3.
Data set [2] deals with galectin-3 transfected BT549 cells.

Consider `O=c1c(-c2ccc(O)cc2)coc2cc(O)cc(O)c12` [genistein], for which the apoptosis induction result in data set [1] was “effectively induces apoptosis”. Moreover, in data set [2], the “cell cycle arrest / apoptosis” value is “cell cycle arrest at the G(2)/M phase takes place without apoptosis induction”.
